In paper PMC7219735, “Crystal structure of Thermus thermophilus methylenetetrahydrofolate dehydrogenase and determinants of thermostability” (PLoS ONE, 2020):

Target: T1, T. thermophilus methylenetetrahydrofolate dehydrogenase (TtMTHFD) (Thermus thermophilus, UniProt Q5SJ94)
T1 construct: gene folD; His-tagged (pQtev, tag removal not mentioned), expressed in E. coli BL21(DE3), 33 kDa, dimer; 277 residues in the model, one chain per asymmetric unit
T1 sequence (Q5SJ94 1-282): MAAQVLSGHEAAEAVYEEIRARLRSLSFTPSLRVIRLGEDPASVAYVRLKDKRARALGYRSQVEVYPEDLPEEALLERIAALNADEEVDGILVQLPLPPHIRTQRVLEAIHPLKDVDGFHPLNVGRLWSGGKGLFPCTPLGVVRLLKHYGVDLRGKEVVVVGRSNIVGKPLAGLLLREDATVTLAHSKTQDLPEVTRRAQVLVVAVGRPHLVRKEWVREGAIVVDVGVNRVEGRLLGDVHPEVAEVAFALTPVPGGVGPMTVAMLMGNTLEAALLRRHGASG
Test: X-ray crystal structure, […] A
Details: crystals from 800 mM potassium sodium tartrate, 100 mM HEPES pH 7.5; nucleotide binding domain; NADP+ addition not described

Compound: NC(=O)c1ccc[n+]([C@@H]2O[C@H](COP(=O)(O)OP(=O)(O)OC[C@H]3O[C@@H](n4cnc5c(N)ncnc54)[C@H](OP(=O)(O)O)[C@@H]3O)[C@@H](O)[C@H]2O)c1 [NADP^+]
- X-ray crystal structure, 2.15 A: we were able to unambiguously identify and fit a molecule of NADP^+
